Measured values reported in patent publication US9315489B2, “Compounds and compositions for inhibiting the activity of ABL1, ABL2 and BCR-ABL1” (Novartis AG, priority 2012, dated 2016).
Like-named read-outs stand apart in the source and are kept apart here.

Legend:
Ba/F3-BCR-ABL1-WT cells = assay: Ba/F3-BCR-ABL1-WT cellular proliferation assay; format: cell-based, murine; settings: Mus musculus, read-out: Ba/F3-BCR-ABL1-WT IC50
[1] = Compound concentration in mouse brain and plasma; format: in vivo; settings: 5 minutes after a single intravenous injection of 1 mg/kg in mice; for concentration at 5 min / Kp at 5 min: mouse; for concentration at 5 min: plasma, read-out: Mean blood (drug concentration in plasma); for Kp at 5 min: brain/plasma, read-out: Mean Ratio (brain/plasma)
ABL1 (64-515) [2] = target: T1, ABL1 (64-515) (Homo sapiens (Human), UniProt P00519); assay: Radio ABL1 (64-515) assay (radiometric filter-binding); format: biochemical
[3] = test system: Ba/F3-BCR-ABL1-T315I cells; assay: Ba/F3-BCR-ABL1-T315I cellular proliferation assay; format: cell-based, murine; settings: Mus musculus; 48 hours; read-out: Ba/F3-BCR-ABL1-T315I IC50
Text: The murine bone marrow-derived cell line Ba/F3 was used to generate the appropriate cell line models. Ba/F3 cells were obtained from the German Collection of Microorganisms and Cell Cultures (DSMZ, Braunschweig and DSMZ No. ACC 300). […] These cells are referred to as Ba/F3-WT.
To generate Ba/F3 cells that depend on BCR-ABL1 expression for growth and survival, Ba/F3 cells were engineered to express BCR-ABL1 using retroviral transduction with a MSCV based retroviral vector containing a p210 BCR-ABL1expression cassette. When grown in the absence of IL-3, the proliferation of the cells is dependent on the expression of BCR-ABL1. (Daley, G. Q. and Baltimore, D. Transformation of an interleukin 3-dependent hematopoietic cell line by the chronic myeloid leukemia-specific p210 BCR-ABL1 protein. PNAS 1988; 85:9312-9316). These cells are referred to as Ba/F3-BCR-ABL1-WT. A similar approach was used to generate Ba/F3 cells that depend on a BCR-ABL1 variant in which threonine 315 is replaced with isoleucine. These cells are referred to as Ba/F3-BCR-ABL1-T3151.
Ba/F3-WT cells were maintained in RPMI1640 media with L-glutamine, HEPES (Lonza), 10% FBS (Gibco) and 5 ng/ml IL-3 (Calbiochem). Ba/F3-BCR-ABL1-WT cells and Ba/F3-BCR-ABL1-T3151 cells were maintained in RPMI1640 media with L-glutamine, HEPES (Lonza) and 10% FBS (Gibco).
For each cell line, the cell density was adjusted to 50 000 cells/mL and 50 μL (2500 cells) added per well of a 384-well assay plate.
Test compounds were resuspended in DMSO at a concentration of 10 mM. A serial three-fold dilution of each compound with DMSO was performed in 384-well plates using the Janus Liquid Dispenser (PerkinElmer). Compound was delivered to the assay plates containing 2500 cells in a 50 μL volume via Acoustic delivery from an ATS-100 (EDC). For Ba/F3-BCR-ABL1-WT cell assays, […] of each compound dilution was transferred to the assay plate for final assay concentrations of 0.4 μM, 0.13 μM, 0.044 μM, 0.015 μM, 0.005 μM, 0.001 μM, 0.00033 μM, 0.00011 μM, 0.000037 μM, 0.000012 μM. For Ba/F3-WT and Ba/F3-BCR-ABL1-T315I cell assays, […] of each compound dilution was transferred to the assay plate for final assay concentrations of 10 μM, 3.33 μM, 1.11 μM, 0.37 μM, 0.12 μM, 0.041 μM, 0.014 μM, 0.0046 μM, 0.0015 μM, 0.00051 μM.
Cells were incubated at 37° C. in a humidified environment with 5% carbon dioxide for 48 hours. Britelite plus solution (Perkin Elmer) was prepared according to the manufacturer's instructions and 25 μL added to each well of the assay plate. Plates were incubated for 3-5 minutes and the luminescence detected on an EnVision Multimode plate reader (Perkin Elmer). The degree of luminescence correlates with the number of cells in each well. The effect of each inhibitor concentration can therefore be calculated and IC50 values generated.

ABL1 (64-515) [4] = target: T1, ABL1 (64-515); assay: Caliper ABL1 (64-515) assay (microfluidic mobility shift); format: biochemical

T1 sequence (P00519 64-515): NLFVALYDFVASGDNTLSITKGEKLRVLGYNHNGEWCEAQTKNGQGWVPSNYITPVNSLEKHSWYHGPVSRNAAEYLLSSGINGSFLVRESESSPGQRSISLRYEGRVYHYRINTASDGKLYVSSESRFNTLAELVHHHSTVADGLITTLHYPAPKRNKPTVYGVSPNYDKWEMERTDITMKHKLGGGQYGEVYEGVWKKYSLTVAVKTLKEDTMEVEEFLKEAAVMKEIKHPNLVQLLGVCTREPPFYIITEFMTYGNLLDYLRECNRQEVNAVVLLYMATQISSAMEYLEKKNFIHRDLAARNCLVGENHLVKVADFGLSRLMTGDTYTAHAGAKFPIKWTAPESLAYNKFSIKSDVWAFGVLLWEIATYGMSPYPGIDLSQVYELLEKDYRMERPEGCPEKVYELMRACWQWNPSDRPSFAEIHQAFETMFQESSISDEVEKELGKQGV

IC50 (ABL1 (64-515) [2]) | IC50 (ABL1 (64-515) [4]) | Compound | IC50 (Ba/F3-BCR-ABL1-WT cells; 48 hours) | also measured
– | – | O=C(Nc1ccc(OC(F)(F)F)cc1)c1cccc(-c2cncnc2)c1 [Example 1, 3-(Pyrimidin-5-yl)-N-(4-(trifluoromethoxy)phenyl)benzamide] | – | IC50 (Ba/F3-BCR-ABL1-WT cells; 48 h): 150 nM; Mean brain (drug concentration in brain) [1]: 4946 pmol/g; concentration at 5 min [1]: 1160 nM
3.3 nM | – | COC(=O)c1cc(-c2cccc(C(=O)Nc3ccc(OC(F)(F)F)cc3)c2)cs1 [Example 6, Methyl 4-(3-((4-(trifluoromethoxy)phenyl)carbamoyl)phenyl)thiophene-2-carboxylate] | 1060 nM | –
22 nM | – | O=C(Nc1ccc(OC(F)(F)F)c(F)c1)c1cccc(-c2cncnc2)c1 [Example 9, N-(3-Fluoro-4-(trifluoromethoxy)phenyl)-3-(pyrimidin-5-yl)benzamide] | 89 nM | –
3.6 nM | – | O=C(Nc1ccc(OC(F)(F)F)cc1)c1ccc(OCCN2CCOCC2)c(-c2cncnc2)c1 [Example 37, 4-(2-Morpholinoethoxy)-3-(pyrimidin-5-yl)-N-(4-(trifluoromethoxy)phenyl)benzamide] | – | IC50 [3]: 521 nM
– | – | O=C(Nc1ccc(OC(F)(F)F)cc1)c1cnc(C2CCOCC2)c(-c2cncnc2)c1 [Example 45, 5-(Pyrimidin-5-yl)-6-(tetrahydro-2h-pyran-4-yl)-N-(4-(trifluoromethoxy)phenyl)nicotinamide] | – | IC50 [3]: 460 nM
– | 6.6 nM | N#CC1(c2ncc(C(=O)Nc3ccc(OC(F)(F)F)cc3)cc2-c2cncnc2)CCOCC1 [Example 46, 6-(4-Cyanotetrahydro-2h-pyran-4-yl)-5-(pyrimidin-5-yl)-N-(4-(trifluoromethoxy)phenyl)nicotinamide] | – | –
– | – | CC(C)(C#N)c1ncc(C(=O)Nc2ccc(OC(F)(F)F)cc2)cc1-c1cncnc1 [Example 47, 6-(2-Cyanopropan-2-yl)-5-(pyrimidin-5-yl)-N-(4-(trifluoromethoxy)phenyl)nicotinamide] | – | IC50 [3]: 736 nM
< 3 nM | – | COc1ncc(C(=O)Nc2ccc(OC(F)(F)F)cc2)cc1-c1cncnc1 [Example 49, 6-Methoxy-5-(pyrimidin-5-yl)-N-(4-(trifluoromethoxy)phenyl)nicotinamide] | 47 nM | –
63 nM | 51 nM | COCCOc1ncc(C(=O)Nc2ccc(OC(F)(F)F)cc2)cc1-c1cncnc1 [Example 51, 6-(2-Methoxyethoxy)-5-(pyrimidin-5-yl)-N-(4-(trifluoromethoxy)phenyl)nicotinamide] | – | –
8.9 nM | 22 nM | O=C(Nc1ccc(OC(F)(F)F)cc1)c1cnc(OC2CCOCC2)c(-c2cncnc2)c1 [Example 53, 5-(Pyrimidin-5-yl)-6-((tetrahydro-2h-pyran-4-yl)oxy)-N-(4-(trifluoromethoxy)phenyl)nicotinamide] | – | –
20 nM | 93 nM | O=C(Nc1ccc(OC(F)(F)F)cc1)c1cc(-c2cncnc2)ccc1F [Example 59, 2-Fluoro-5-(pyrimidin-5-yl)-N-(4-(trifluoromethoxy)phenyl)benzamide] | – | –
3.5 nM | 31.5 nM | Nc1ncc(-c2cncc(C(=O)Nc3ccc(OC(F)(F)F)cc3)c2)cn1 [Example 61, 5-(2-Aminopyrimidin-5-yl)-N-(4-(trifluoromethoxy)phenyl)nicotinamide] | – | –
114 nM | 200 nM | O=C(Nc1ccc(OC(F)(F)F)cc1)c1cncc(-c2cnn(CCO)c2)c1 [Example 64, 5-(1-(2-Hydroxyethyl)-1H-pyrazol-4-yl)-N-(4-(trifluoromethoxy)phenyl)nicotinamide] | – | –
– | – | CC(C)(O)c1ncc(C(=O)Nc2ccc(OC(F)(F)F)cc2)cc1-c1cncnc1 [Example 66, 6-(2-Hydroxypropan-2-yl)-5-(pyrimidin-5-yl)-N-(4-(trifluoromethoxy)phenyl)nicotinamide] | – | IC50 [3]: 722 nM
8.7 nM | – | O=C(Nc1ccc(OC(F)(F)F)cc1)c1cncc(-c2cccnc2)c1 [Example 74, N-(4-(Trifluoromethoxy)phenyl)-[3,3′-bipyridine]-5-carboxamide] | 30 nM | Mean brain (drug concentration in brain) [1]: 8509 pmol/g; Kp at 5 min [1]: 3.29; concentration at 5 min [1]: 2580 nM
– | 55 nM | O=C(Nc1ccc(OC(F)(F)F)cc1)c1cnc(Cl)c(-c2ccn[nH]2)c1 [Example 80, 6-Chloro-5-(1H-pyrazol-5-yl)-N-(4-(trifluoromethoxy)phenyl)nicotinamide] | – | –

Compound | IC50 (ABL1 (64-515) [2]) | IC50 (ABL1 (64-515) [4]) | IC50 (Ba/F3-BCR-ABL1-WT cells; 48 hours) | also measured
COc1ncc(-c2cc(C(=O)Nc3ccc(OC(F)(F)F)cc3)ccc2C)cn1 [Example 13, 3-(2-Methoxypyrimidin-5-yl)-4-methyl-N-(4-(trifluoromethoxy)phenyl)benzamide] | 3 nM | – | 4.9 nM | Mean brain (drug concentration in brain) [1]: 4011 pmol/g; Kp at 5 min [1]: 1.29; concentration at 5 min [1]: 3090 nM
Cc1ccc(C(=O)Nc2ccc(OC(F)(F)F)cc2)cc1-c1cccnc1 [Example 15, 4-Methyl-3-(pyridin-3-yl)-N-(4-(trifluoromethoxy)phenyl)benzamide] | 4 nM | – | 11 nM | Mean brain (drug concentration in brain) [1]: 6847 pmol/g; Kp at 5 min [1]: 3.2; concentration at 5 min [1]: 2140 nM
Cc1ccc(C(=O)Nc2ccc(OC(F)(F)F)cc2)cc1-c1cncs1 [Example 17, 4-Methyl-3-(thiazol-5-yl)-N-(4-(trifluoromethoxy)phenyl)benzamide] | 3 nM | – | 27 nM | Mean brain (drug concentration in brain) [1]: 6985 pmol/g; Kp at 5 min [1]: 2.3; concentration at 5 min [1]: 3030 nM
O=C(Nc1ccc(OC(F)(F)F)cc1)c1ccc(F)c(-c2cc[nH]n2)c1 [Example 23, 4-fluoro-3-(1H-pyrazol-3-yl)-N-(4-(trifluoromethoxy)phenyl)benzamide] | 31 nM | – | 693 nM | –
COc1ccc(C(=O)Nc2ccc(OC(F)(F)F)cc2)cc1-c1cc[nH]n1 [Example 34, 4-methoxy-3-(1H-pyrazol-3-yl)-N-(4-(trifluoromethoxy)phenyl)benzamide] | 13 nM | – | 77 nM | –
Cc1ncc(C(=O)Nc2ccc(OC(F)(F)F)cc2)cc1-c1cncnc1 [Example 43, 6-Methyl-5-(pyrimidin-5-yl)-N-(4-(trifluoromethoxy)phenyl)nicotinamide] | 3 nM | 2.3 nM | 10 nM | –
O=C(Nc1ccc(OC(F)(F)F)cc1)c1cnc(Cl)c(-c2ncc[nH]2)c1 [Example 65, 6-Chloro-5-(1H-imidazol-2-yl)-N-(4-(trifluoromethoxy)phenyl)nicotinamide] | 5 nM | – | 184 nM | –
O=C(Nc1ccc(OC(F)(F)F)cc1)c1cccc(-c2cncnc2)n1 [Example 73, 6-(Pyrimidin-5-yl)-N-(4-(trifluoromethoxy)phenyl)picolinamide] | 684 nM | 540 nM | 1870 nM | –
O=C(Nc1ccc(OC(F)(F)F)cc1)c1cnc(Cl)c(-c2cncc(F)c2)c1 [Example 77, 2-Chloro-5′-fluoro-N-(4-(trifluoromethoxy)phenyl)-[3,3′-bipyridine]-5-carboxamide] | – | 4.9 nM | 13 nM | –
O=C(Nc1ccc(OC(F)(F)F)cc1)c1cnc(Cl)c(-c2cccnc2)c1 [Example 79, 2-Chloro-N-(4-(trifluoromethoxy)phenyl)-[3,3′-bipyridine]-5-carboxamide] | – | 10 nM | 6 nM | –
